# According to ChEMBL document CHEMBL1123075, “Opioid agonists and antagonists. 6-Desoxy-6-substituted lactone, epoxide, and glycidate ester derivatives of naltrexone and oxymorphone” (J Med Chem, 1985):
# Tests used:
# Opioid receptor [1] = target: T1, Opioid receptor (Rattus norvegicus, UniProt P33533+P34975+P33535); experiment: In vitro opioid receptor binding competition against 1 nM [3H]- Naltrexone in the absence of NaCl.; assay type: protein assay
# Opioid receptor [2] = target: T1, Opioid receptor; experiment: In vitro opioid receptor binding competition against 1 nM [3H]- Naltrexone in the presence of 100 mM NaCl.; assay type: protein assay
# [3] = target: Opioid receptor (Rattus norvegicus) (UniProt P33533+P34975+P33535); experiment: Ratio of IC50 value in presence of NaCl to that of NaCl absence against opioid receptor.; assay type: protein assay
# [4] = Activity against specific binding of [3H]naltrxone at dose 200 nM & at 25 degree C in the absence of Na+ ion (unwashed )
# [5] = Activity against specific binding of [3H]naltrxone at dose 200 nM & at 25 degree C in the absence of Na+ ion (washed)
# [6] = Activity against specific binding of [3H]-naltrxone at dose 200 nM & at 25 degree C in the presence of Na+ ion (unwashed )
# [7] = Activity against specific binding of [3H]naltrxone at dose 200 nM & at 25 degree C in the presence of Na+ ion (washed)
# [8] = Activity against specific binding of [3H]naltrxone at dose 500 nM & at 37 degree C in the presence of Na+ ion (unwashed )
# [9] = Activity against specific binding of [3H]naltrxone at dose 500 nM & at 37 degree C in the presence of Na+ ion(washed)
# [10] = Activity against specific binding of [3H]naltrxone at dose 75 nM & at 37 degree C in the absence of Na+ ion (unwashed )
# [11] = Activity against specific binding of [3H]naltrxone at dose 75 nM & at 37 degree C in the absence of Na+ ion (washed)
Structure (SMILES),IC50 (Opioid receptor [1]) [nM],IC50 (Opioid receptor [2]) [nM],Ratio [3],other results
C=C1C(=O)OC2C1CC1(O)[C@H]3Cc4ccc(O)c5c4[C@@]1(CCN3CC1CC1)C2O5 (stereo partly specified),10,7,0.7,–
C=C1CC2(CCC3(O)[C@H]4Cc5ccc(O)c6c5[C@@]3(CCN4CC3CC3)C2O6)OC1=O (stereo in doubt; 6a) [listing 1 of 2 here],12.5,15,–,–
C=C1CC2(CCC3(O)[C@H]4Cc5ccc(O)c6c5[C@@]3(CCN4C)C2O6)OC1=O (stereo in doubt; 5b) [listing 1 of 2 here],–,–,7,Control [4]: 35%; Control [5]: 79%; Control [6]: 43%; Control [7]: 63%; Control [8]: 34%; Control [9]: 56%; Control [10]: 66%; Control [11]: 97%
CCOC(=O)[C@H]1OC12CCC1(O)[C@H]3Cc4ccc(O)c5c4[C@@]1(CCN3CC1CC1)C2O5 (stereo partly specified),2.3,3.5,1.5,–
Oc1ccc2c3c1OC1C4(CCC5(O)[C@@H](C2)N(CC2CC2)CC[C@]315)CO4 (stereo in doubt; 13a) [listing 1 of 2 here],5.1,3.4,–,–
Oc1ccc2c3c1OC1C4(CCC5(O)[C@@H](C2)N(CC2CC2)CC[C@]315)CO4 (stereo in doubt; 12a) [listing 1 of 2 here],–,–,0.5,–
CC1=CC2(CCC3(O)C4Cc5ccc(O)c6c5[C@@]3(CCN4C)C2O6)OC1=O (stereo partly specified),200,> 1000,> 5,–
C=C1C(=O)OC2=C1CC1(O)[C@H]3Cc4ccc(O)c5c4[C@@]1(CCN3CC1CC1)C2O5 (stereo partly specified),100,50,0.5,–
CC1=CC2(CCC3(O)[C@H]4Cc5ccc(O)c6c5[C@@]3(CCN4CC3CC3)C2O6)OC1=O (stereo partly specified),40,70,1.8,–
CCOC(=O)[C@@H]1OC12CCC1(O)C3Cc4ccc(O)c5c4[C@@]1(CCN3C)C2O5 (stereo partly specified),15,200,13.3,–
C=C1CC2(CCC3(O)[C@H]4Cc5ccc(O)c6c5[C@@]3(CCN4CC3CC3)C2O6)OC1=O (stereo in doubt; 5a) [listing 1 of 2 here],5,2,–,–
Oc1ccc2c3c1OC1C4(CCC5(O)[C@@H](C2)N(CC2CC2)CC[C@]315)CO4 (stereo in doubt; 13a) [listing 2 of 2 here],–,–,0.6,–
CCOC(=O)[C@H]1OC12CCC1(O)C3Cc4ccc(O)c5c4[C@@]1(CCN3C)C2O5 (stereo partly specified),70,1000,14.2,–
Oc1ccc2c3c1OC1C4(CCC5(O)[C@@H](C2)N(CC2CC2)CC[C@]315)CO4 (stereo in doubt; 12a) [listing 2 of 2 here],4,2,–,–
C=C1CC2(CCC3(O)[C@H]4Cc5ccc(O)c6c5[C@@]3(CCN4CC3CC3)C2O6)OC1=O (stereo in doubt; 5a) [listing 2 of 2 here],–,–,0.4,–
CCOC(=O)[C@@H]1OC12CCC1(O)[C@H]3Cc4ccc(O)c5c4[C@@]1(CCN3CC1CC1)C2O5 (stereo partly specified),6,–,1,–
C=C1CC2(CCC3(O)[C@H]4Cc5ccc(O)c6c5[C@@]3(CCN4C)C2O6)OC1=O (stereo in doubt; 6b) [listing 1 of 2 here],–,–,7,–
C=C1CC2(CCC3(O)[C@H]4Cc5ccc(O)c6c5[C@@]3(CCN4C)C2O6)OC1=O (stereo in doubt; 6b) [listing 2 of 2 here],125,880,–,–
CC1CC2(CCC3(O)C4Cc5ccc(O)c6c5[C@@]3(CCN4C)C2O6)OC1=O (stereo partly specified),30,500,16.7,–
C=C1CC2(CCC3(O)[C@H]4Cc5ccc(O)c6c5[C@@]3(CCN4CC3CC3)C2O6)OC1=O (stereo in doubt; 6a) [listing 2 of 2 here],–,–,1.2,–
O=C1C=CC2(CCC3(O)[C@H]4Cc5ccc(O)c6c5[C@@]3(CCN4CC3CC3)C2O6)O1 (stereo partly specified),10,10,1,–
CC1CC2(CCC3(O)[C@H]4Cc5ccc(O)c6c5[C@@]3(CCN4CC3CC3)C2O6)OC1=O (stereo partly specified),10,6,0.6,–
CN1CC[C@]23c4c5ccc(O)c4OC2C2(CCC3(O)C1C5)CO2 (stereo partly specified),8,60,7.5,–
C=C1CC2(CCC3(O)[C@H]4Cc5ccc(O)c6c5[C@@]3(CCN4C)C2O6)OC1=O (stereo in doubt; 5b) [listing 2 of 2 here],35,250,–,–
